Records with an inconclusive call do not appear. The source made the active and inactive calls.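 How the source made its calls: active means fitted curve of rescue activity rises past 40% within the tested concentration range, in every replicate run; inconclusive means replicate runs disagree, some active and some not; inactive means all replicate runs inactive, including effects in the opposite direction.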
Key:
[1] = suppressors of statin-induced myotube ATP loss, dose response, cell-based, differentiated C2C12, luminescence, dry powder (AID 743336); settings: C2C12 myotubes + simvastatin, ATP luminescence, 48 h
[2] = tested on: C2C12 myotubes + simvastatin, ATP luminescence, 48 h; test: as above

SMILES	rescue activity ([1]; at 19.5 µM (top of the series))	other results
N#C[C@@H]1[C@H](c2ccc(-c3cccc(F)c3)cc2)[C@@H](CO)N1C(=O)NC1CCCC1	-10.7% (inactive)	–
N#C[C@H]1N[C@@H](CO)[C@@H]1c1ccc(-c2cccc(F)c2)cc1	–	rescue activity ([1]; at 21 µM (top of the series)): 0.836% (inactive)
C[C@H]1CN([C@@H](C)CO)C(=O)Cc2cc(NC(=O)CCCCCC(=O)Nc3ccccc3N)ccc2O[C@@H]1CN(C)Cc1ccc(Oc2ccccc2)cc1	–	rescue activity ([1]; at 21 µM (top of the series)): 20% (inactive)
C[C@@H]1CN([C@H](C)CO)C(=O)Cc2cc(NC(=O)CCCCCC(=O)Nc3ccccc3N)ccc2O[C@@H]1CN(C)Cc1ccc(Oc2ccccc2)cc1	-50.8% (inactive)	–
C[C@@H]1CN([C@H](C)CO)C(=O)c2cccc(NC(=O)c3nc4ccccc4s3)c2O[C@@H]1CN(C)Cc1ccc(C(=O)Nc2ccccc2N)cc1	-3.35% (inactive)	–
COc1ccc(S(=O)(=O)Nc2cccc3c2O[C@H](CN(C)C(=O)Nc2ccc(F)cc2)[C@H](C)CN([C@@H](C)CO)C3=O)cc1	–	AC40 [2]: 14.5 µM
C[C@@H]1CN([C@@H](C)CO)C(=O)c2cc(NC(=O)Cc3cn(C)c4ccccc34)ccc2O[C@H]1CN(C)Cc1ccc(C(=O)Nc2ccccc2N)cc1	29.3% (inactive)	–
C[C@@H]1CN([C@H](C)CO)C(=O)Cc2cc(NS(=O)(=O)c3ccc(Cl)cc3)ccc2O[C@H]1CN(C)Cc1ccccc1	–	AC40 [2]: 15.3 µM
C[C@H](CO)N1C[C@H](C)[C@H](CN(C)Cc2ccc3c(c2)OCO3)Oc2ccc(NC(=O)CCCCCC(=O)Nc3ccccc3N)cc2CC1=O	–	rescue activity ([1]; at 18 µM (top of the series)): 27.2% (inactive)
COc1ccc(S(=O)(=O)N(C)C[C@H]2Oc3c(NC(=O)Nc4ccccc4)cccc3C(=O)N([C@H](C)CO)C[C@H]2C)cc1	29.2% (inactive)	–
CCCC#Cc1ccc([C@H]2[C@@H](C#N)N(S(=O)(=O)c3cccc(F)c3)[C@H]2CO)cc1	3.48% (inactive)	–
N#C[C@@H]1[C@H](c2ccc(-c3cccc(F)c3)cc2)[C@H](CO)N1C(=O)NC1CCCC1	-9.1% (inactive)	–
CN(C)C(=O)c1cccc(-c2ccc([C@@H]3[C@@H](C#N)N(C(=O)C4CCCC4)[C@@H]3CO)cc2)c1	11.9% (inactive)	–
Cc1ccc(S(=O)(=O)Nc2ccc3c(c2)CC(=O)N([C@@H](C)CO)C[C@@H](C)[C@H](CN(C)Cc2ccc(-c4ccccc4)cc2)O3)cc1	–	AC40 [2]: 17.5 µM
Cc1noc(C)c1S(=O)(=O)Nc1ccc2c(c1)CC(=O)N([C@H](C)CO)C[C@@H](C)[C@@H](CN(C)Cc1ccc(-c3ccccc3)cc1)O2	–	AC40 [2]: 13.9 µM
N#C[C@H]1[C@@H](c2ccc(-c3cccc(F)c3)cc2)[C@@H](CO)N1C(=O)NC1CCCC1	5.12% (inactive)	–
N#C[C@@H]1[C@@H](c2ccc(-c3cccc(F)c3)cc2)[C@@H](CO)N1C(=O)NC1CCCC1	9.41% (inactive)	–
CN1C(=O)c2cc(NC(=O)c3ccc(F)c(F)c3)ccc2OC[C@H]2O[C@@H](CC(=O)Nc3ccc4c(c3)COC4)CC[C@@H]21	29.3% (inactive)	–
C[C@H]1CN([C@@H](C)CO)C(=O)Cc2cc(NC(=O)CCCCCC(=O)Nc3ccccc3N)ccc2O[C@H]1CN(C)Cc1ccc(C(F)(F)F)cc1	–	rescue activity ([1]; at 21 µM (top of the series)): 44.5% (inactive)
C[C@H]1CN([C@@H](C)CO)C(=O)c2cc(NC(=O)Nc3cccc4ccccc34)ccc2O[C@H]1CN(C)Cc1ccc(C(=O)Nc2ccccc2N)cc1	–	AC40 [2]: 13.5 µM
C[C@H]1CN([C@@H](C)CO)S(=O)(=O)c2ccc(C#Cc3ccc(F)cc3)cc2O[C@@H]1CN(C)S(=O)(=O)c1cn(C)cn1	–	AC40 [2]: 18.9 µM
C[C@@H]1CN([C@@H](C)CO)C(=O)Cc2cc(NC(=O)CCCCCC(=O)Nc3ccccc3N)ccc2O[C@@H]1CN(C)Cc1ccc(Oc2ccccc2)cc1	–	rescue activity ([1]; at 21 µM (top of the series)): -22.1% (inactive)

SMILES	rescue activity ([1]; at 19.5 µM (top of the series))	other results
N#C[C@@H]1[C@@H](c2ccccc2)[C@H](CO)N1S(=O)(=O)c1ccc(-c2ccccc2)cc1	–	AC40 [2]: 10.6 µM
C[C@H]1CN([C@@H](C)CO)C(=O)Cc2cc(NS(=O)(=O)c3ccc(Cl)cc3)ccc2O[C@@H]1CN(C)CC1CCCCC1	–	rescue activity ([1]; at 21 µM (top of the series)): 3.09% (inactive)
COc1ccc(C#Cc2cnc3c(c2)C(=O)N([C@H](C)CO)C[C@H](C)[C@H](CN(C)Cc2ccccc2)O3)cc1OC	32.2% (inactive)	–
CCCNC(=O)N1[C@@H](C#N)[C@@H](c2ccc(-c3ccccc3F)cc2)[C@@H]1CO	–	rescue activity ([1]; at 21 µM (top of the series)): -7.41% (inactive)
C[C@@H]1CN([C@H](C)CO)C(=O)c2cccc(NC(=O)Nc3ccc4c(c3)OCO4)c2O[C@H]1CN(C)Cc1ccc(C(=O)Nc2ccccc2N)cc1	–	AC40 [2]: 14.7 µM
CC(C)CC#Cc1cnc2c(c1)C(=O)N([C@H](C)CO)C[C@H](C)[C@@H](CN(C)C(=O)Cc1ccccc1)O2	–	rescue activity ([1]; at 21 µM (top of the series)): -0.381% (inactive)
C[C@H]1CN([C@@H](C)CO)S(=O)(=O)c2ccc(C#CC3CC3)cc2O[C@H]1CN(C)C(=O)Nc1cc(F)ccc1F	23.2% (inactive)	–
N#C[C@@H]1[C@@H](c2ccc(-c3ccc(F)cc3)cc2)[C@H](CO)N1C(=O)Cc1ccccc1	37.6% (inactive)	–
COCC(=O)N1[C@H](C#N)[C@@H](c2ccc(-c3cccc(F)c3)cc2)[C@@H]1CO	–	rescue activity ([1]; at 21 µM (top of the series)): 7.78% (inactive)
N#C[C@@H]1[C@@H](c2ccc(C3=CCCCC3)cc2)[C@H](CO)N1C(=O)NC1CCCC1	33.7% (inactive)	–
C[C@H]1CN([C@@H](C)CO)C(=O)Cc2cc(NC(=O)CCCCCC(=O)Nc3ccccc3N)ccc2O[C@H]1CN(C)Cc1ccccc1	–	AC40 [2]: 13.8 µM
Cc1ccc(S(=O)(=O)N(C)C[C@@H]2Oc3ccc(NS(=O)(=O)c4ccc(Cl)cc4)cc3C(=O)N([C@H](C)CO)C[C@@H]2C)cc1	27.2% (inactive)	–
O=C(C[C@H]1CC[C@@H]2[C@H](COC[C@@H](O)CN2Cc2ccc(Oc3ccccc3)cc2)O1)N1CCCCC1	22.2% (inactive)	–
C[C@H]1CN([C@@H](C)CO)C(=O)c2cc(C#Cc3ccncc3)cnc2O[C@@H]1CN(C)CC1CCCC1	20.2% (inactive)	–
N#C[C@H]1[C@H](c2ccc(C#Cc3ccc(F)cc3)cc2)[C@H](CO)N1c1nc(-c2ccccc2)cs1	38.1% (inactive)	–
N#C[C@H]1[C@H](c2ccc(C#CCC3CCCC3)cc2)[C@@H](CO)N1C(=O)CN1CCOCC1	28.6% (inactive)	–
N#C[C@@H]1[C@@H](c2ccc(-c3cccc(F)c3)cc2)[C@H](CO)N1C(=O)c1cccnc1	7.76% (inactive)	–
C[C@@H]1CN([C@H](C)CO)C(=O)Cc2cc(NS(=O)(=O)c3cn(C)cn3)ccc2O[C@@H]1CN(C)Cc1ccc(Cl)c(Cl)c1	34.3% (inactive)	–
C[C@H]1CN([C@@H](C)CO)C(=O)c2cc(N(C)C)ccc2O[C@@H]1CN(C)Cc1ccc(C(=O)Nc2ccccc2N)cc1	28.1% (inactive)	–
C[C@@H]1CN([C@@H](C)CO)C(=O)c2cc(NS(=O)(=O)c3ccc(Cl)cc3)ccc2O[C@H]1CN(C)C(=O)Nc1cccc2ccccc12	–	AC40 [2]: 14.6 µM
N#C[C@@H]1[C@@H](c2ccccc2-c2ccc(F)cc2)[C@H](CO)N1C(=O)NC1CCCC1	35.5% (inactive)	–
CCCNC(=O)N1[C@H](C#N)[C@@H](c2ccc(C3=CCCCC3)cc2)[C@@H]1CO	37.4% (inactive)	–

SMILES	rescue activity ([1]; at 19.5 µM (top of the series))	other results
N#C[C@H]1[C@H](c2ccc(-c3cccc(F)c3)cc2)[C@H](CO)N1C(=O)NC1CCCC1	29.9% (inactive)	–
C[C@H](CO)N1C[C@H](C)[C@@H](CN(C)Cc2ccc(Oc3ccccc3)cc2)Oc2c(NC(=O)Nc3cccc4ccccc34)cccc2C1=O	26.8% (inactive)	–
CC(C)=CCC/C(C)=C/CC/C(C)=C/CC/C(C)=C/CO	–	AC40 [2]: 4.38 µM
C[C@H](CO)N1C[C@H](C)[C@H](CN(C)Cc2ccc(Oc3ccccc3)cc2)Oc2ccc(NC(=O)CCCCCC(=O)Nc3ccccc3N)cc2CC1=O	–	rescue activity ([1]; at 21 µM (top of the series)): -22.7% (inactive)
C[C@@H]1CN([C@H](C)CO)C(=O)Cc2cc(NC(=O)CCCCCC(=O)Nc3ccccc3N)ccc2O[C@H]1CN(C)Cc1ccc(Oc2ccccc2)cc1	30.8% (inactive)	–
N#C[C@@H]1[C@@H](c2ccc(C#Cc3cccnc3)cc2)[C@@H](CO)N1C(=O)C1CCCC1	-15.7% (inactive)	–
C/C=C/c1ccc([C@H]2[C@@H](CO)N(C(=O)NC3CCCC3)[C@H]2C#N)cc1	5.47% (inactive)	–
CCS(=O)(=O)N1[C@H](C#N)[C@@H](c2ccc(-c3cccc(F)c3)cc2)[C@@H]1CO	–	rescue activity ([1]; at 21 µM (top of the series)): 10.1% (inactive)
CCCNC(=O)N1[C@H](CO)[C@H](c2ccccc2)[C@@H]1C#N	-1.71% (inactive)	–
N#C[C@@H]1[C@@H](c2ccccc2-c2cccc(F)c2)[C@H](CO)N1C(=O)NC1CCCC1	35.9% (inactive)	–
N#C[C@@H]1[C@@H](c2ccc(C#CC3CCCC3)cc2)[C@H](CO)N1S(=O)(=O)c1ccccc1	–	AC40 [2]: 20 µM
C[C@@H]1CN([C@@H](C)CO)C(=O)c2cccc(NC(=O)Nc3ccc4c(c3)OCO4)c2O[C@H]1CN(C)Cc1ccc(C(=O)Nc2ccccc2N)cc1	–	AC40 [2]: 16.2 µM
C[C@@H]1CN([C@H](C)CO)C(=O)Cc2cc(NC(=O)C3CCCCC3)ccc2O[C@H]1CN(C)Cc1ccc(Cl)c(Cl)c1	24.8% (inactive)	–
C[C@H](CO)N1C[C@H](C)[C@H](CN(C)Cc2ccc(C(=O)Nc3ccccc3N)cc2)Oc2ccc(NC(=O)Nc3ccc(F)cc3)cc2CC1=O	-62.1% (inactive)	–
N#C[C@H]1[C@H](c2ccc(-c3cccc(F)c3)cc2)[C@@H](CO)N1C(=O)NC1CCCC1	33.1% (inactive)	–
Cc1noc(C)c1S(=O)(=O)Nc1ccc2c(c1)CC(=O)N([C@H](C)CO)C[C@H](C)[C@@H](CN(C)Cc1ccc(C(F)(F)F)cc1)O2	–	AC40 [2]: 16 µM
C[C@H]1CN([C@@H](C)CO)C(=O)Cc2cc(NC(=O)Nc3cccc4ccccc34)ccc2O[C@H]1CN(C)Cc1ccc(C(=O)Nc2ccccc2N)cc1	–	AC40 [2]: 9.64 µM
COc1ccc(-c2ccc([C@@H]3[C@@H](C#N)N(C(=O)NC4CCCC4)[C@H]3CO)cc2)cc1	12.8% (inactive)	–
C[C@H](CO)N1C[C@H](C)[C@H](CN(C)Cc2ccc(C(=O)Nc3ccccc3N)cc2)Oc2ccc(N(C)C)cc2C1=O	6.09% (inactive)	–
O=C(C[C@H]1CC[C@@H]2[C@H](COC[C@H](O)CN2CCC(F)(F)F)O1)NCc1ccc(Oc2ccccc2)cc1	23.4% (inactive)	–
N#C[C@H]1[C@@H](c2ccc(-c3cccc(F)c3)cc2)[C@H](CO)N1C(=O)NC1CCCC1	-7.45% (inactive)	–

Reference: PubChem BioAssay AID743336 (Broad Institute, 2014)
